Results published in publication PMC11643225, “Novel Benzimidazole-Endowed Chalcones as α-Glucosidase and α-Amylase Inhibitors: An Insight into Structural and Computational Studies” (Molecules, 2024).
“Also recorded” adds a separate entry of the source.

Key:
yeast α-glucosidase = yeast α-glucosidase inhibition assay (pNPG substrate); type: biochemical; settings: yeast enzyme, 37 °C
Experimental: (§1) The in vitro enzyme inhibition assays for the two enzymes, i.e., α-glucosidase and α-amylase, were performed according to the previous studies.
The yeast α-glucosidase inhibition assay was performed using pNPG as substrate. An amount of 100 µL of enzyme was then added to the mixture, and the reaction was incubated at 37 °C for 10 min. After adding 0.5 mM pNPG solution, the reaction continued at 37 °C for 20 min. The enzyme activity was determined by measuring the absorbance of the liberated p-nitrophenol at 405 nm using a microplate spectrophotometer. The results were expressed as a percentage of α-glucosidase inhibition, calculated using the formula “Inhibition (%) = (A control − A sample)/A control × 100”. The final results of the enzyme inhibition assay are represented as IC50 values which refers to the concentration required to block 50% of α-glucosidase activity under the test conditions.

[1] = target: T1, type-VI B porcine pancreatic α-amylase (Sus scrofa, UniProt P00690); assay: α-amylase inhibition assay (starch substrate, DNS reagent); type: biochemical; settings: porcine pancreatic enzyme, 25 °C, read-out: IC50 (mean ± SD) α-Amylase (converted)
T1 construct: performed using type-VI B porcine pancreatic α-amylase, with starch as a substrate; from tissue; host or cells: porcine pancreas
T1 sequence (P00690 16-511): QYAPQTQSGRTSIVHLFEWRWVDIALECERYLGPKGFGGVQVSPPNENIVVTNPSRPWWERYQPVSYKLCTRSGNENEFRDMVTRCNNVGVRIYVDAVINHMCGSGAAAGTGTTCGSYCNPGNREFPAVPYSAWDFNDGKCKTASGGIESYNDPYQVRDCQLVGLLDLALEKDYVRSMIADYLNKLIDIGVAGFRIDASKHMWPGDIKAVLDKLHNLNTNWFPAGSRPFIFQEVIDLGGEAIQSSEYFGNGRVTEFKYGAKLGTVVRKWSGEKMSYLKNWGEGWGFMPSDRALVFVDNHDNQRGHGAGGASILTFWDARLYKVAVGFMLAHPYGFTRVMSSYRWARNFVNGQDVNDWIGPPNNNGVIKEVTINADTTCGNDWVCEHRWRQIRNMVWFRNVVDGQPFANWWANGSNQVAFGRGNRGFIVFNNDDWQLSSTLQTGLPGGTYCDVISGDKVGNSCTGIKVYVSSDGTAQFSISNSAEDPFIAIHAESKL
Experimental: as §1
The α-amylase inhibition activity was performed using type-VI B porcine pancreatic α-amylase, with starch as a substrate. The enzyme was dissolved in sodium phosphate buffer and the test compound was added at different concentrations. […] The reaction was terminated by adding a DNS reagent and kept in a boiling water bath for 5 min. The resulting mixture was diluted and absorbance was measured at 540 nm using a microplate spectrophotometer.

HEK293 cells = type: cell-based; settings: for cytotoxicity against HEK293 cell lines (in words): MTT, 48 h, 250, 500 and 1000 µg/mL, even at the highest concentration (1000 µg/mL)
Experimental: The Human Embryonic Kidney (HEK-293) cell lines were cultured in Dulbecco’s Modified Eagle Medium (DMEM) supplemented with 10% fetal bovine serum (FBS). The cells were maintained at 37 °C in a humidified atmosphere of 5% CO2. The adherent cells were grown to 70–80% confluency and then harvested by trypsinization (0.25%). The test compounds were dissolved in DMSO and used for all the experiments. DMSO (0.1%) was used as vehicle control and cells cultured in a complete medium without compound served as control.
Briefly, 5 × 10^3 cells (HEK293 cells) were seeded and allowed to adhere overnight. […] Post 48 h, the cells were exposed to MTT (5 mg/mL in phosphate-buffered saline). The formazan crystals were dissolved in DMSO and the absorption was measured at 570 nm using a microplate reader (Tecan Spark, Switzerland). The percentage viability of the cells was determined.

IC50 (mean ± SD) α-Glucosidase (yeast α-glucosidase)	IC50 [1] [µM]	melting point [°C]	SMILES	cytotoxicity against HEK293 cell lines (in words) (HEK293 cells)	cell death (HEK293 cells; HEK293, MTT, 25 µg/mL)
28.75 ± 0.12 f µg/mL	76.4	127 to 129	COc1ccc(-c2nc3cc(C(=O)/C=C/c4cc(OC)c(OC)c(OC)c4)ccc3n2C)cc1OC [Compound 7f]		
30.23 ± 0.14 µg·h/mL	92.7	148 to 150	COc1ccc(-c2nc3cc(C(=O)/C=C/c4ccccc4Cl)ccc3n2C)cc1OC [Compound 7a]		
29.28 ± 0.35 g µg/mL	61.7	183 to 184	COc1cc(-c2nc3cc(C(=O)/C=C/c4ccccc4Cl)ccc3n2C)cc(OC)c1OC [Compound 7g]		
29.30 ± 0.21 g µg/mL	84.4	137 to 139	COc1ccc(/C=C/C(=O)c2ccc3c(c2)nc(-c2cc(OC)c(OC)c(OC)c2)n3C)cc1OC [Compound 7k]		
36.22 ± 0.58 l µg/mL	68.9	168 to 170	COc1cc(-c2nc3cc(C(=O)/C=C/c4ccc(C)cc4)ccc3n2C)cc(OC)c1OC [Compound 7h]		
27.21 ± 0.36 e µg/mL	85.6	142 to 144	COc1ccc(/C=C/C(=O)c2ccc3c(c2)nc(-c2cc(OC)c(OC)c(OC)c2)n3C)cc1 [Compound 7j]		
25.21 ± 0.13 c µg/mL	91.9	159 to 161	COc1ccccc1/C=C/C(=O)c1ccc2c(c1)nc(-c1ccc(OC)c(OC)c1)n2C [Compound 7c]		
			CO[C@@]12[C@H](COC(N)=O)C3=C(C(=O)C(C)=C(N)C3=O)N1C[C@@H]1N[C@@H]12 [Mitomycin, reference compound]		around 60%
631.7 ± 12.5 µg·h/mL	85	98 to 100	COc1ccc(/C=C/C(=O)c2ccc3c(c2)nc(-c2ccc(OC)c(OC)c2)n3C)cc1 [Compound 7d]		
33.20 ± 0.60 J·µg/mL	52.8	176 to 178	COc1ccccc1/C=C/C(=O)c1ccc2c(c1)nc(-c1cc(OC)c(OC)c(OC)c1)n2C [Compound 7i]		

SMILES	IC50 (mean ± SD) α-Glucosidase (yeast α-glucosidase)	IC50 [1] [µM]	melting point [°C]	cytotoxicity against HEK293 cell lines (in words) (HEK293 cells)	cell death (HEK293 cells; HEK293, MTT, 25 µg/mL)
COc1ccc(-c2nc3cc(C(=O)/C=C/c4ccc(C)cc4)ccc3n2C)cc1OC [Compound 7b]	32.10 ± 0.96 i µg/mL	81		negligible cytotoxicity	
COc1ccc(/C=C/C(=O)c2ccc3c(c2)nc(-c2ccc(OC)c(OC)c2)n3C)cc1OC [Compound 7e]	23.88 ± 0.55 b µg/mL	75.1		negligible cytotoxicity	
COc1cc(/C=C/C(=O)c2ccc3c(c2)nc(-c2cc(OC)c(OC)c(OC)c2)n3C)cc(OC)c1OC [Compound 7l, (E)-1-(1-methyl-2-(3,4,5-trimethoxyphenyl)-1H-benzo[d]imidazol-5-yl)-3-(3,4,5-trimethoxyphenyl)prop-2-en-1-one]	22.45 ± 0.36 a µg/mL	39.5		negligible cytotoxicity; also recorded: without exerting toxicity	
